One assay has as its target T1, ALK (Homo sapiens, UniProt Q9UM73).
T1 construct: host or cells: baculovirus expression system
In words: ALK Kinase Assay (ELISA/TRF, PLC-γ substrate). The class given is biochemical. The settings on record: ALK Kinase Inhibition; read-out: ALK Potency. In short, it runs like this: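 Wells were coated with 10 μg/mL phospholipase C-γ substrate in TBS, and the reaction was started by adding 30 ng/ml ALK enzyme and run at 37° C for 15 minutes. Phosphorylated product was detected with Eu-N1-labeled PT66 antibody, and IC50 values came from sigmoidal variable-slope fits of percent inhibition against log concentration.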

The target of another assay is T2, JAK2 (Homo sapiens, UniProt O60674).
T2 construct: host or cells: baculovirus expression system
The experiment in a line: Recombinant Human JAK2 Kinase Assay (TRF). The class given is biochemical. The settings on record: JAK2 Kinase Inhibition; read-out: JAK2 Potency. In short, it runs like this:
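Kinase activity of baculovirus-expressed JAK2 is followed on a surface-immobilised biotinylated peptide, with the reaction run for 20 min at room temperature in buffer containing 0.2 μM ATP and manganese. Phosphorylation is read with Eu-N1 PY100 antibody.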

T1 sequence (Q9UM73 19-1620): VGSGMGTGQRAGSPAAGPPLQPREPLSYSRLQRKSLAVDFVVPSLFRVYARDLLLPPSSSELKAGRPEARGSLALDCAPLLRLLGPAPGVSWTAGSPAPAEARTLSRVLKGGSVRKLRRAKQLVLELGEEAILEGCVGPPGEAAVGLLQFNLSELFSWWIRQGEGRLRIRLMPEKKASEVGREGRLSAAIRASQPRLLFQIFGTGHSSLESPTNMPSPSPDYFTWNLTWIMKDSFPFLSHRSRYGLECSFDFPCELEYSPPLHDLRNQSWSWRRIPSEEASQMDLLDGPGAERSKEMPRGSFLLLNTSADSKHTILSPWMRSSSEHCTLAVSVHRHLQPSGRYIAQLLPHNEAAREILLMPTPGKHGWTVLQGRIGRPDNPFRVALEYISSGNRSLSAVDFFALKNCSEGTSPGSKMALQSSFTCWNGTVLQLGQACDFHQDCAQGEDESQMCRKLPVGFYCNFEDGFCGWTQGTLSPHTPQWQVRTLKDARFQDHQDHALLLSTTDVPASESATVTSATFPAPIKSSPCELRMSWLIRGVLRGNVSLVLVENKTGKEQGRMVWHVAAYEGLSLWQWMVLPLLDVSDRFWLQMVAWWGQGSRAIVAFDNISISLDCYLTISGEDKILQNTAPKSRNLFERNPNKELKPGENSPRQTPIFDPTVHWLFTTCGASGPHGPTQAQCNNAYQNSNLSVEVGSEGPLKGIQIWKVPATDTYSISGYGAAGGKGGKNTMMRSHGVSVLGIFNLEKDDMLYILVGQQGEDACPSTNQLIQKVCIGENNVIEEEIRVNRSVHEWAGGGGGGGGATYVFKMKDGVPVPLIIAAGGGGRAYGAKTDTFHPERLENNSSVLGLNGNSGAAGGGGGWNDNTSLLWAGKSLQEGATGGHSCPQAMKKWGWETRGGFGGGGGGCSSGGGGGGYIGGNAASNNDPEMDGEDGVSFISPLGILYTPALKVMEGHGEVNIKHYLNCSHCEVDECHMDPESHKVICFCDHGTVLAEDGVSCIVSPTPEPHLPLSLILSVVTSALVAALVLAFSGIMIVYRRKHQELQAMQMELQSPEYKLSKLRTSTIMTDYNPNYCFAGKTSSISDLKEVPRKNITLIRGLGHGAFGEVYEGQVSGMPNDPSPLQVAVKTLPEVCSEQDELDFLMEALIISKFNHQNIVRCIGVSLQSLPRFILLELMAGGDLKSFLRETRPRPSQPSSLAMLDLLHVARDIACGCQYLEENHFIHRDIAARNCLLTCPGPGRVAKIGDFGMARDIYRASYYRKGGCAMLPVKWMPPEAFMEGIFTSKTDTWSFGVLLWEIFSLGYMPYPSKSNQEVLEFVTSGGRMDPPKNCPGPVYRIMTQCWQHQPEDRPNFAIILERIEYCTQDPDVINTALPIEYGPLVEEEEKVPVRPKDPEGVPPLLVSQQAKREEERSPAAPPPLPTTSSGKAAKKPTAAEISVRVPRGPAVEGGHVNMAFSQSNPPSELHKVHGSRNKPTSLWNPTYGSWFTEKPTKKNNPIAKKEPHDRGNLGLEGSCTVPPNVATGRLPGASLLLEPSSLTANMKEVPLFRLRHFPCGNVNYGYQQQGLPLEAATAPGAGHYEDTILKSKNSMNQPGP
T2 sequence (O60674 whole entry): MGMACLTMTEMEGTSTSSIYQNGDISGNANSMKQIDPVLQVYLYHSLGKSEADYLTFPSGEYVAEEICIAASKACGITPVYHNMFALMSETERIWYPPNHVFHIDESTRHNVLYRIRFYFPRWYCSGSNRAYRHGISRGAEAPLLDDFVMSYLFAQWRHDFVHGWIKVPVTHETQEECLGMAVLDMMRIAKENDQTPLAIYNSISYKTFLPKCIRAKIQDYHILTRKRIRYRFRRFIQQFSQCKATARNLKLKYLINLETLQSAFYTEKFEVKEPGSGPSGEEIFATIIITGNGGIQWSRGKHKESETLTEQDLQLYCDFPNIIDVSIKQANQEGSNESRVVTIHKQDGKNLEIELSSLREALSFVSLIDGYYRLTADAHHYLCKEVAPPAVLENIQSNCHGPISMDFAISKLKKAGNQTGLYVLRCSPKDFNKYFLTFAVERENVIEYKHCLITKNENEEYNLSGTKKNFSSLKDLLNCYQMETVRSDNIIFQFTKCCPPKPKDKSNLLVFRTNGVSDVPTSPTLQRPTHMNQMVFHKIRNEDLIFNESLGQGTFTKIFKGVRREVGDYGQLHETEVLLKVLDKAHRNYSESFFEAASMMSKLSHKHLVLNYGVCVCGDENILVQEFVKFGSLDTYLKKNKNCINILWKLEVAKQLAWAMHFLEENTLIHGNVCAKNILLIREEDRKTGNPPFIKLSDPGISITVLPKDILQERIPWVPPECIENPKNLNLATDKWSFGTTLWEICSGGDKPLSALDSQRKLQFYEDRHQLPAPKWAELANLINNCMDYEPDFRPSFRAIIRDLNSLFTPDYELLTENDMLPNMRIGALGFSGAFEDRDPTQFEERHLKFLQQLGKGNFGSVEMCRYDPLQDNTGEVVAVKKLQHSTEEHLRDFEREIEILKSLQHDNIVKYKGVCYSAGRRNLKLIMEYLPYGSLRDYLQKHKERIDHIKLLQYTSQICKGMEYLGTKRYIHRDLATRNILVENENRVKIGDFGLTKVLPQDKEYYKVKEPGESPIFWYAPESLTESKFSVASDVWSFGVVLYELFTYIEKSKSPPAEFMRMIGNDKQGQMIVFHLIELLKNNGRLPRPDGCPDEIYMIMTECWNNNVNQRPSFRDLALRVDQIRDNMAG

On to `N#Cc1ccc(-c2ccc3cnc(Nc4ccc(N5CCOCC5)cc4)nn23)cn1` [Example 37, 5-[2-(4-Morpholin-4-yl-phenylamino)-pyrrolo[2,1-f][1,2,4]triazin-7-yl]-pyridine-2-carbonitrile], for which the IC50 on ALK is 1 to 10 µM; at JAK2 it was < 0.1 µM.
Turning to `N#Cc1cccc(-c2ccc3cnc(Nc4ccc(N5CCOCC5)cc4)nn23)c1` [Example 39, 3-[2-(4-Morpholin-4-yl-phenylamino)-pyrrolo[2,1-f][1,2,4]triazin-7-yl]-benzonitrile], the IC50 on ALK is > 10 µM; at JAK2 it was < 0.1 µM.
Consider `CN1CCN(c2ccc(Nc3ncc4c(-c5ccccc5Cl)ccn4n3)cc2)CC1` [Example 40, [5-(2-Chloro-phenyl)-pyrrolo[2,1-f][1,2,4]triazin-2-yl]-[4-(4-methyl-piperazin-1-yl)-phenyl]-amine], for which the figures for the IC50 at ALK and at JAK2 were > 10 µM and 1 to 10 µM, respectively.
For the compound `CN1CCN(c2ccc(Nc3ncc4c(-c5ccccc5)ccn4n3)cc2)CC1` [Example 41, [4-(4-Methyl-piperazin-1-yl)-phenyl]-(5-phenyl-pyrrolo[2,1-f][1,2,4]triazin-2-yl)-amine], the IC50 at ALK was > 10 µM; at JAK2, < 0.1 µM.
Turning to `COc1ccccc1-c1ccn2nc(Nc3ccc(N4CCN(C)CC4)cc3)ncc12` [Example 42, [5-(2-Methoxy-phenyl)-pyrrolo[2,1-f][1,2,4]triazin-2-yl]-[4-(4-methyl-piperazin-1-yl)-phenyl]-amine], the IC50 at ALK was > 10 µM; on JAK2 it was 0.1 to 1 µM.
For the compound `CS(=O)(=O)c1cccc(-c2ccc3cnc(Nc4ccc(N5CCOCC5)cc4)nn23)c1` [Example 43, [7-(3-Methanesulfonyl-phenyl)-pyrrolo[2,1-f][1,2,4]triazin-2-yl]-(4-morpholin-4-yl-phenyl)-amine], the figures for the IC50 on ALK and at JAK2 were 0.1 to 1 µM and < 0.1 µM, respectively.
With `CC(C)(C)OC(=O)c1ccc(-c2ccc3cnc(Nc4ccc(N5CCOCC5)cc4)nn23)cc1` [Example 44, 4-[2-(4-Morpholin-4-yl-phenylamino)-pyrrolo[2,1-f][1,2,4]triazin-7-yl]-benzoic acid tert-butyl ester], the IC50 on ALK was > 10 µM; at JAK2, < 0.1 µM.
For the compound `O=C(O)c1ccc(-c2ccc3cnc(Nc4ccc(N5CCOCC5)cc4)nn23)cc1` [Example 45, 4-[2-(4-Morpholin-4-yl-phenylamino)-pyrrolo[2,1-f][1,2,4]triazin-7-yl]-benzoic acid], the IC50 at ALK is > 10 µM; at JAK2 it was < 0.1 µM.
Taken in the same sequence, the figures for `c1ccc(-c2ccc3cnc(Nc4ccc(N5CCOCC5)nc4)nn23)cc1` [Example 46, (6-Morpholin-4-yl-pyridin-3-yl)-(7-phenyl-pyrrolo[2,1-f][1,2,4]triazin-2-yl)-amine] were 1 to 10 µM and < 0.1 µM.
Taken in the same sequence, the figures for `COc1ccccc1-c1ccc2cnc(Nc3ccc(N4CCOCC4)nc3)nn12` [Example 47, [7-(2-Methoxy-phenyl)-pyrrolo[2,1-f][1,2,4]triazin-2-yl]-(6-morpholin-4-yl-pyridin-3-yl)-amine] were 0.1 to 1 µM and < 0.1 µM.
In the case of `COCCN1CCc2cc(Nc3ncc4ccc(-c5ccccc5OC)n4n3)c(OC)cc2CC1` [Example 48, [8-Methoxy-3-(2-methoxy-ethyl)-2,3,4,5-tetrahydro-1H-benzo[d]azepin-7-yl]-[7-(2-methoxy-phenyl)-pyrrolo[2,1-f][1,2,4]triazin-2-yl]-amine], the IC50 at ALK is < 0.1 µM; on JAK2, 0.1 to 1 µM.
In the case of `Clc1cccc(-c2ccc3cnc(Nc4ccc(N5CCCCC5)cc4)nn23)c1` [Example 49, [7-(3-Chloro-phenyl)-pyrrolo[2,1-f][1,2,4]triazin-2-yl]-(4-piperidin-1-yl-phenyl)-amine], the IC50 on ALK was > 10 µM; at JAK2, < 0.1 µM.
For the compound `c1cc2cnc(Nc3ccc(N4CCOCC4)cc3)nn2c1` [Example 50, (4-Morpholin-4-yl-phenyl)-pyrrolo[2,1-f][1,2,4]triazin-2-yl-amine], the IC50 at ALK is > 10 µM; on JAK2 it was < 0.1 µM.
Taken in the same sequence, the figures for `N#Cc1ccc2cnc(Nc3ccc(N4CCOCC4)cc3)nn12` [Example 51, 2-(4-Morpholin-4-yl-phenylamino)-pyrrolo[2,1-f][1,2,4]triazine-7-carbonitrile] were > 10 µM and < 0.1 µM.
In the same order, the values of `CN(C)CCNC(=O)c1ccc(-c2ccc3cnc(Nc4ccc(N5CCOCC5)cc4)nn23)cc1` [Example 52, N-(2-Dimethylamino-ethyl)-4-[2-(4-morpholin-4-yl-phenylamino)-pyrrolo[2,1-f][1,2,4]triazin-7-yl]-benzamide] are 0.1 to 1 µM and < 0.1 µM.
As for `O=C(NCCN1CCCC1)c1ccc(-c2ccc3cnc(Nc4ccc(N5CCOCC5)cc4)nn23)cc1` [Example 53, 4-[2-(4-Morpholin-4-yl-phenylamino)-pyrrolo[2,1-f][1,2,4]triazin-7-yl]-N-(2-pyrrolidin-1-yl-ethyl)-benzamide], the IC50 on ALK is 0.1 to 1 µM; at JAK2, < 0.1 µM.
In the same order, the values of `O=C(NCCCN1CCCC1)c1ccc(-c2ccc3cnc(Nc4ccc(N5CCOCC5)cc4)nn23)cc1` [Example 54, 4-[2-(4-Morpholin-4-yl-phenylamino)-pyrrolo[2,1-f][1,2,4]triazin-7-yl]-N-(3-pyrrolidin-1-yl-propyl)-benzamide] are 0.1 to 1 µM and < 0.1 µM.
Taken in the same sequence, the figures for `CNC(=O)c1ccc(-c2ccc3cnc(Nc4ccc(N5CCOCC5)cc4)nn23)cc1` [Example 55, N-Methyl-4-[2-(4-morpholin-4-yl-phenylamino)-pyrrolo[2,1-f][1,2,4]triazin-7-yl]-benzamide] were 1 to 10 µM and < 0.1 µM.
Taken in the same sequence, the figures for `O=C(NCCN1CCOCC1)c1ccc(-c2ccc3cnc(Nc4ccc(N5CCOCC5)cc4)nn23)cc1` [Example 56, N-(2-Morpholin-4-yl-ethyl)-4-[2-(4-morpholin-4-yl-phenylamino)-pyrrolo[2,1-f][1,2,4]triazin-7-yl]-benzamide] were 1 to 10 µM and < 0.1 µM.
Consider `O=C(NCCCN1CCOCC1)c1ccc(-c2ccc3cnc(Nc4ccc(N5CCOCC5)cc4)nn23)cc1` [Example 57, 4-[2-(4-Morpholin-4-yl-phenylamino)-pyrrolo[2,1-f][1,2,4]triazin-7-yl]-N-(3-morpholin-4-yl-propyl)-benzamide], for which the IC50 is 1 to 10 µM at ALK and < 0.1 µM at JAK2.
Regarding `FC(F)(F)c1cc(-c2ccc3cnc(Nc4ccc(N5CCOCC5)cc4)nn23)ccc1Cl` [Example 58, [7-(4-Chloro-3-trifluoromethyl-phenyl)-pyrrolo[2,1-f][1,2,4]triazin-2-yl]-(4-morpholin-4-yl-phenyl)-amine], the IC50 at ALK was 1 to 10 µM; at JAK2 it was < 0.1 µM.
As to `CN1CCN(c2ccc(Nc3ncc4ccc(-c5ccc(S(C)(=O)=O)cc5)n4n3)cc2)CC1` [Example 59, [7-(4-Methanesulfonyl-phenyl)-pyrrolo[2,1-f][1,2,4]triazin-2-yl]-[4-(4-methyl-piperazin-1-yl)-phenyl]-amine], the IC50 at ALK was 0.1 to 1 µM; at JAK2, < 0.1 µM.
Consider `CS(=O)(=O)c1ccc(-c2ccc3cnc(Nc4ccc(N5CCOCC5)nc4)nn23)cc1` [Example 60, [7-(4-Methanesulfonyl-phenyl)-pyrrolo[2,1-f][1,2,4]triazin-2-yl]-(6-morpholin-4-yl-pyridin-3-yl)-amine], for which the IC50 on ALK was 1 to 10 µM; at JAK2 it was < 0.1 µM.

The values are drawn from patent US8471005B2 (Cephalon, Inc., priority 2008, dated 2013).
